Test results published in PMC4434089 (Biotechnology, Biotechnological Equipment, 2014).
Several values for one entry are separate records, joined by “and”; a condition that tells them apart may be missing. Identical values can stand only once. Marks after values point to notes of the source that are not given here.

Key:
amylin [1] = assay: NTA of amylin aggregation, alone or with amylin derivatives; assay type: biochemical, human; conditions: for implied effect on fibrillogenesis of amylin: NTA compared with previously published reports; for Concentration of aggregates 100–150 nm, 10 min / Concentration of aggregates 200–300 nm, 10 min / Concentration of aggregates 150–200 nm, 10 min / Concentration of aggregates 100–150 nm, 24 h / Concentration of aggregates 200–300 nm, 24 h / Concentration of aggregates 150–200 nm, 24 h: amylin 50 μmol L^−1 alone (A) or with 250 μmol L^−1 derivative, pH 7.4, duplicate; for Concentration of aggregates 100–150 nm, 10 min: 10 mmol L^−1 sodium phosphate, 50 mmol L^−1 NaCl; for Concentration of aggregates 100–150 nm, 10 min / Concentration of aggregates 150–200 nm, 10 min: p < 0.05 less than A: n1, n5, m5; for Concentration of aggregates 200–300 nm, 10 min: p < 0.05 less than A: n1, n3, n5, m1, m2, m3, m4, m5; for Concentration of aggregates 100–150 nm, 24 h: p < 0.05 less than A: n1, n2, m5, significantly more: m2; for Concentration of aggregates 200–300 nm, 24 h: p < 0.05 less than A: n1, n2, n3, n4, n5, m5; for Concentration of aggregates 150–200 nm, 24 h: p < 0.05 less than A: n1, n2, n5, m5; for number of 200–300 nm aggregates at 24 h vs amylin only: amylin:derivative 50:250 μmol L^−1, p < 0.05; for effect on amylin aggregation over 24 h: all size ranges, amylin:derivative 50:250 μmol L^−1, vs amylin only; for concentration of 200–300 nm aggregates, with derivative: similar to or more than amylin only
Experimental: NTA measurements were performed with a NanoSight LM20 instrument (NanoSight, United Kingdom) equipped with a 640 nm laser and a temperature controlled sample chamber. […] The sample temperature was maintained at 37 °C for the entire duration of the experiment. These experimental conditions were similar to that used for a previously reported cytotoxicity experiment,[73] thus allowing correlation of results obtained from the two techniques. […] Once again, samples were maintained at 37 °C and 60 s video footage were recorded every 10 min for the first hour and then at 24 h. All videos were captured with the single shutter and gain modes. Analysis was performed using NanoSight NTA version 2.2 software with a viscosity setting of 0.70.

[2] = test system: amylin-mediated cytotoxicity; set-up: method as in PMID 20093026; conditions: cited from earlier work
amylin [3] = test system: amylin; set-up: method as in 2 sources, ref 23 = [23]; PMID 9878384; doi:10.1006/jmbi.1998.2299; Goldsbury C Kistler J Aebi U Arvinte T Cooper GJS J Mol Biol. 1999 285 33 39 9878384 10.1006/jmbi.1998.2299 ||| ref 26 = [26]; PMID 9216085; doi:10.1006/jsbi.1997.3858; Goldsbury CS Cooper GJS Goldie KN Muller SA Saafi EL Gruijters WTM Misur MP J Struct Biol. 1997 119 17 27 http://dx.doi.org/10.1006/jsbi.1997.3858 9216085 10.1006/jsbi.1997.3858; conditions: cited from earlier work

Substance | implied effect on fibrillogenesis of amylin (amylin [1]) | Concentration of aggregates 100–150 nm, 10 min (amylin [1]; NTA, 10 min, 37 °C) | Concentration of aggregates 200–300 nm, 10 min (amylin [1]; NTA, 10 min, 37 °C) | Concentration of aggregates 150–200 nm, 10 min (amylin [1]; NTA, 10 min, 37 °C) | Concentration of aggregates 100–150 nm, 24 h (amylin [1]; NTA, 37 °C) | Concentration of aggregates 200–300 nm, 24 h (amylin [1]; NTA, 37 °C) | Concentration of aggregates 150–200 nm, 24 h (amylin [1]; NTA, 37 °C) | number of 200–300 nm aggregates at 24 h vs amylin only (amylin [1]; NTA) | effect on amylin aggregation over 24 h (amylin [1]; NTA) | reduction of amylin-mediated cytotoxicity [2] | concentration of 200–300 nm aggregates, with derivative (amylin [1]; NTA) | inhibitory effect on amylin-mediated cytotoxicity [2] | other results
STNVGS [n5] | increase fibrillogenesis of amylin to an aggregate that is larger than 1000 nm | 0.1* ×10^7 aggregates/mL | 0.5* ×10^7 aggregates/mL | 0.1* ×10^7 aggregates/mL | 2.4 ×10^7 aggregates/mL | 2.0* ×10^7 aggregates/mL | 1.4* ×10^7 aggregates/mL | significantly lower than in samples containing amylin only | small amount of aggregates of all size ranges which increases only marginally over 24 h | more than 40% | – | – | –
NFGAIL* [m4] | – | 2.7 ×10^7 aggregates/mL | 1.6* ×10^7 aggregates/mL | 1.5 ×10^7 aggregates/mL | 4.1 ×10^7 aggregates/mL | 3.3 ×10^7 aggregates/mL | 2.8 ×10^7 aggregates/mL | – | – | – | ≥ 2.7 × 10^7 aggregates per millilitre | not to have an inhibitory effect on amylin-mediated cytotoxicity | –
TQRLA [n2] | increase fibrillogenesis of amylin to an aggregate that is larger than 1000 nm | 4.3 ×10^7 aggregates/mL | 3.4 ×10^7 aggregates/mL | 2.5 ×10^7 aggregates/mL | 1.5* ×10^7 aggregates/mL | 2.1* ×10^7 aggregates/mL | 1.5* ×10^7 aggregates/mL | significantly lower than in samples containing amylin only | – | more than 40% | – | – | concentrations of 100–150, […]–200 and 200–300 nm aggregates at 10 min vs amylin only (amylin [1]; NTA, 10 min, amylin:derivative 50:250 μmol L^−1, unpaired t-test): not significantly different
Amylin: chemically synthesized full-length human amylin, 37 amino acid long peptide (KCNTATCATQRLANFLVHSSNNFGAILSSTNVGSNTY; Islet amyloid polypeptide; UniProt P10997 34-70, looked up) [reference compound] | – | 5.7 ×10^7 aggregates/mL | 7.0 ×10^7 aggregates/mL | 5.4 ×10^7 aggregates/mL | 2.9 ×10^7 aggregates/mL | 2.7 ×10^7 aggregates/mL | 2.5 ×10^7 aggregates/mL | – | – | – | – | – | critical concentration of 200–300 nm aggregates for amylin-mediated cytotoxicity (amylin [1]; NTA correlated to cytotoxicity data, suggested): more than 2.1 × 10^7 aggregates per millilitre; size of toxic species of amylin (amylin [1]; NTA correlated to previously published cytotoxicity (ref 73), tentatively suggested): 200–300 nm; predominant aggregate size (amylin [1]; NTA, amylin 50 μmol L^−1 alone, 37 °C, pH 7.4, over 24 h): 150–200 nm and 200–300 nm; completion of aggregation (amylin [1]; NTA, amylin alone): complete aggregation of amylin occurs within the first hour; concentration of 100–150, […]–200 and 200–300 nm aggregates after the first hour (amylin [1]; NTA, amylin alone, stable up until 24 h): 2.5 × 10^7 – 3.0 × 10^7 aggregates per millilitre; total concentration of aggregates (amylin [1]; initial NTA, 50 μmol L^−1 amylin): 3.12 × 10^8 aggregates per millilitre; amylin growth rate (AFM) (amylin [3]; AFM): 1.1 nm/min; mass-per-length (MPL) of amylin protofibril (amylin [3]; STEM): 10 kDa nm^−1; approximate rate of amylin aggregation (amylin [3]; estimated from literature AFM and STEM values): ~11 kDa min^−1
TQRLA* [m2] | – | 3.9 ×10^7 aggregates/mL | 2.6* ×10^7 aggregates/mL | 2.4 ×10^7 aggregates/mL | 3.6** ×10^7 aggregates/mL | 4.6 ×10^7 aggregates/mL | 7.9 ×10^7 aggregates/mL | – | – | – | ≥ 2.7 × 10^7 aggregates per millilitre | not to have an inhibitory effect on amylin-mediated cytotoxicity | –
FLVHSS* [m3] | – | 2.1 ×10^7 aggregates/mL | 2.1* ×10^7 aggregates/mL | 1.6 ×10^7 aggregates/mL | 5.9 ×10^7 aggregates/mL | 4.7 ×10^7 aggregates/mL | 3.9 ×10^7 aggregates/mL | – | – | – | ≥ 2.7 × 10^7 aggregates per millilitre | not to have an inhibitory effect on amylin-mediated cytotoxicity | –
STNVGS* [m5] | inhibit fibrillogenesis | 0.9* ×10^7 aggregates/mL | 0.8* ×10^7 aggregates/mL | 0.8* ×10^7 aggregates/mL | 1.6* ×10^7 aggregates/mL | 1.4* ×10^7 aggregates/mL | 1.3* ×10^7 aggregates/mL | significantly lower than in samples containing amylin only | significantly fewer amylin aggregates of all size ranges | more than 40% | – | – | –
NTAT [n1] | inhibit fibrillogenesis | 0.5* ×10^7 aggregates/mL | 0.4* ×10^7 aggregates/mL | 0.5* ×10^7 aggregates/mL | 0.9* ×10^7 aggregates/mL | 0.8* ×10^7 aggregates/mL | 1.1* ×10^7 aggregates/mL | significantly lower than in samples containing amylin only | significantly less than that observed in samples containing disaggregated amylin only | more than 40% | – | – | –
